Reference: patent publication US11672864B2, “Nanostructured gels capable of controlled release of encapsulated agents” (The Brigham and Women's Hospital, Inc., priority 2010, dated 2023)
One block for each compound: values may come before it.

Tests used:
[1] = Gelation and stability of Abz-derived amphiphiles; format: physicochemical
Protocol: A variety of Abz-derived amphiphiles were synthesized (Scheme 3-1). […] In general, mixtures of polar organic solvents with water gave the best gelation results, with only two pure organogels forming (Abz-Alloc in glycerol, and Abz-Chol in 1,4-dioxane). […] The four amphiphiles had widely different solubility and gelation properties, with each amphiphile forming at least two gels.
Gelation. To a vial containing solid amphiphile was added the appropriate solvent. The vial was sealed and heated over a heat gun (˜110° C. max) until amphiphile fully dissolved. The vial was allowed to cool undisturbed at room temperature, during which time gel formed. For all characterization gels were allowed to form for at least 45 minutes.

[2] = Gelation of Asc-Pal without and with dexamethasone; format: physicochemical; conditions: 20% ethanol in water
Protocol: Self-assembly of the amphiphiles is a delicate process that could be affected by additional agents. To understand the affect of dexamethasone, gelation of Asc-Pal has been explored in 20% ethanol in water by varying concentration of Asc-Pal (1-5% wt/v) while keeping concentration of dexamethasone (2 mg) constant. Results in Table 6-2 reveal that presence of dexamethasone facilitates the self-assembly of Asc-Pal and strengthen the gelation.

[3] = Gelation of Asc-Pal in solvents; format: physicochemical
Protocol: Typically, solvents (0.2 mL) were added to a glass scintillation vial with the gelator (0.5-5 wt/vol %) and sealed with a screw cap. The vial was heated to about 60-80° C. until the gelator was completely dissolved. The vial was placed on a stable surface and allowed to cool to room temperature. Typically after 15-45 min, the solution was transitioned into a viscous gel. Gelation was considered to have occurred when no gravitational flow was observed upon inversion of the glass vial, and resulted hydrogels are injectable. Asc-Pal formed gels in water, benzene, toluene, carbon tetrachloride, and acetonitrile; while a precipitate formed in dimethylformamide and dimethylsulfoxide. Asc-Pal was soluble in chloroform and methanol.

fibroblasts (NIH3T3) = assay: Cytotoxicity of CPT encapsulated SMS self-assembled fibers, NIH3T3; format: cell-based; conditions: Mus musculus; NIH3T3 fibroblasts in culture; unit inferred
Excerpt: (§1) Cytotoxicity Studies of CPT Encapsulated SMS Self-Assembled Fibers. Prior to in vivo studies, evaluation of efficacy of drug delivery systems using appropriate cell lines is an essential step. Efficacy of CPT loaded SMS self-assembled fibers were investigated using glioma cell line, G55 and control cell line fibroblast, NIH3T3. […] We hypothesize that highly proliferative glioma G55 cells secretes high concentrations of enzymes that degrade the self-assembled fibers to release CPT efficiently, whereas free form of CPT degrades in the media due to its low half-life at physiological conditions. […] Encapsulation of Camptothecin and PARP-Inhibitor (AGO14699).

glioma cell line, G55 = assay: Cytotoxicity of CPT encapsulated SMS self-assembled fibers, G55; format: cell-based; conditions: G55 cells in culture
Excerpt: as §1

[4] = Gelation ability and minimum gelation concentration of SMS; format: physicochemical; conditions: for Gelation ability: concentration around 5-9%
Excerpt: MGC values of SMS have varied from 3 to 8 wt/v %.

- Gelation in pure organic solvent ([1]; glycerol): organogels
SMILES: C=CCOC(=O)Nc1cccc(C(N)=O)c1 [Abz-Alloc]

- Gelation ([2]; 1% Asc-Pal, with dex (2 mg)): Weak
- Gelation ([2]; 1% Asc-Pal, without drug): Not gel
- Gelation ([2]; 2% Asc-Pal, with dex (2 mg)): Gel
- Gelation ([2]; 2% Asc-Pal, without drug): weak
- Gelation ([2]; 3% Asc-Pal, with dex (2 mg)): Gel
- Gelation ([2]; 3% Asc-Pal, without drug): Gel
- Gelation ([2]; 4% Asc-Pal, with dex (2 mg)): Gel
- Gelation ([2]; 4% Asc-Pal, without drug): Gel
- Gelation ([2]; 5% Asc-Pal, with dex (2 mg)): Gel
- Gelation ([2]; 5% Asc-Pal, without drug): Gel
- Gelation behaviour ([3]; acetonitrile): gels
- Gelation behaviour ([3]; benzene): gels
- Gelation behaviour ([3]; carbon tetrachloride): gels
- Gelation behaviour ([3]; chloroform): soluble
- Gelation behaviour ([3]; dimethylformamide): precipitate
- Gelation behaviour ([3]; dimethylsulfoxide): precipitate
- Gelation behaviour ([3]; methanol): soluble
- Gelation behaviour ([3]; toluene): gels
- Gelation behaviour ([3]; water, gelator 0.5-5 wt/vol %): gels
SMILES: CCCCCCCCCCCCCCCC(=O)OC[C@H](O)[C@H]1OC(=O)C(O)=C1O [Asc-Pal, Ascorbyl palmitate]

- Gelation ability ([4]; Acetone): Precipitate
- Gelation ability ([4]; Acetonitrile (CH3CN)): Precipitate
- Gelation ability ([4]; Chloroform): Soluble
- Gelation ability ([4]; Dimethyl formamide (DMF)): Soluble
- Minimum Gelation Concentration ([4]; Dimethyl sulfoxide (DMSO)): 3% Wt/V %
- Gelation in gelling solvent ([4]; Dimethyl sulfoxide (DMSO) (Table 4-2)): Gel
- Gelation ability ([4]; Dimethyl sulfoxide (DMSO)): Gel
- Gelation ability ([4]; Dioxane): Soluble
- Gelation ability ([4]; Ethanol): Soluble
- Gelation ability ([4]; Ethyl acetate): Emulsion
- Minimum Gelation Concentration ([4]; Ethylene glycol): 5% Wt/V %
- Gelation in gelling solvent ([4]; Ethylene glycol (Table 4-2)): Gel
- Gelation in gelling solvent ([4]; Glycerol (Table 4-2)): Gel
- Gelation ability ([4]; Glycerol): Gel
- Gelation ability ([4]; Isobutanol): Soluble
- Gelation ability ([4]; Isopropanol): Soluble
- Minimum Gelation Concentration ([4]; Isopropyl palmitate): 3% Wt/V %
- Gelation in gelling solvent ([4]; Isopropyl palmitate (Table 4-2)): Gel
- Gelation ability ([4]; Isopropyl palmitate): Clear Gel
- Gelation ability ([4]; Methanol): Precipitate
- Gelation ability ([4]; Mono-ethylene glycol): Weak Gel
- Gelation ability ([4]; Polyethylene glycol dimethyl acrylate): Increased
- Gelation ability ([4]; Tetrachloro methane): Soluble
- Gelation ability ([4]; Tetrahydrofuran (THF)): Soluble
- Gelation ability ([4]; Toluene): Soluble
- Minimum Gelation Concentration ([4]; Water): 3% Wt/V %
- Gelation in gelling solvent ([4]; Water (Table 4-2)): Gel
- Gelation ability ([4]; Water): Gel
- Gelation ability ([4]; Xylene): Soluble
- Minimum gelation concentrations (MGC) ([4]; across different solvents): 3 to 8 wt/v %
- Minimum Gelation Concentration ([4]; glycerol): 8% Wt/V %
- Minimum Gelation Concentration ([4]; n-hexadecane): 2% Wt/V %
- Gelation in gelling solvent ([4]; n-hexadecane (Table 4-2)): Gel
- Gelation ability ([4]; n-hexadecane): Gel
- Minimum Gelation Concentration ([4]; n-hexane): 4% Wt/V %
- Gelation in gelling solvent ([4]; n-hexane (Table 4-2)): Gel
- Gelation ability ([4]; n-hexane): Gel
SMILES: CCCCCCCCCCCCCCCCCC(=O)OC[C@@H](O)[C@H]1OC[C@H](O)[C@H]1O [Sorbitane Monostearate, sorbitan monostearate]

The remaining lines, values behind:

SMILES: CC(C)CCC[C@@H](C)[C@H]1CC[C@H]2[C@@H]3CC=C4CC(OC(=O)Nc5cccc(C(N)=O)c5)CC[C@]4(C)[C@H]3CC[C@]12C (stereo partly shown) [Abz-Chol]
- Gelation in pure organic solvent ([1]; 1,4-dioxane): organogels

SMILES: NC(=O)c1cccc(NC(=O)Oc2ccc([N+](=O)[O-])cc2)c1 [Abz-PNP]
- Stability of amphiphile [1]: decompose spontaneously

SMILES: CC[C@@]1(O)C(=O)OCc2c1cc1n(c2=O)Cc2cc3ccccc3nc2-1 [Camptothecin]
- IC50 (fibroblasts (NIH3T3)): 3.9 nM
- IC50 (glioma cell line, G55): 30 nM
